This is an account of results in ChEMBL document CHEMBL1201862, “PubChem BioAssay data set” (2004).

Active and inactive are the calls of the source.

Test [1] can be described thus: Trypanosoma cruzi growth suppression in host cells – NIH3T3 host cells, beta-gal luminescence, confirmation (AID 2044).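 Also: intracellular parasites grown in NIH/3T3 mouse fibroblasts as host cells; luminescent beta-galactosidase reporter signal from transgenic T. cruzi replicating inside host cells; inhibitors lower the luminescence signal.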 Format: functional, cell-based.
In test [2] the target is Heat shock protein HSP 90-alpha (Homo sapiens, UniProt P07900). In words: Luminescence-based dose response biochemical high throughput screening assay for inhibitors of the Heat Shock Protein 90 (HSP90). [Related pubchem assays: 1831 (Summary AID.), 1846 (Confirmation screen.), 1789 (Primary screen.)].
Test [3] is described as follows: NIH3T3 cell viability loss – ATP luminescence, mouse fibroblasts, counter-screen, dose response (AID 2010).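 Also: cells exposed to compound for about 90 hours before reading.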 The test is classed as functional, cell-based.
A short description of test [4]: CellTiter-Glo luminescence survival assay, SW480 colon tumor line, concentration-response curve, half-maximal inhibitory concentration (AID 1117338). The test is classed as functional. In general terms: Cellular ATP, detected with luciferase, serves as a proxy for viable cell number.
Test [5] is described as follows: cytotoxicity toward HT-29 cells – cell-based, CellTiter-Glo luminescence, IC50, dose response (AID 1117330). Format: functional.
The nature of test [6]: cytotoxicity toward Colo320 cells – cell-based, CellTiter-Glo luminescence, IC50, dose response (AID 1117334). Particulars: COLO 320. Format: functional.
Test [7] is described as follows: SNU-C1 cell viability reduction, dose response, CellTiter-Glo luminescence (AID 1117323). Format: functional, cell-based.
Test [8] can be described thus: HCT116 cell viability decrease, GSK3B pretreatment – CellTiter-Glo, IC50, dose response (AID 1117339). The test is classed as functional. The note with it: HCT-116.
A short description of test [9]: RKO cell viability reduction, dose response, CellTiter-Glo luminescence (AID 1117322). The test is classed as functional.
The nature of test [10]: cytotoxicity toward HCT116 cells – cell-based, CellTiter-Glo luminescence, IC50, dose response (AID 1117332). The test is classed as functional. The note with it: HCT-116.
A short description of test [11]: Reduced DLD-1 viability, concentration-response, CellTiter-Glo luminescence (AID 1117352). Format: functional.
For test [12], the target named is T1, Oxysterols receptor LXR-beta (Homo sapiens, UniProt P55055).
T1 sequence (P55055 whole entry): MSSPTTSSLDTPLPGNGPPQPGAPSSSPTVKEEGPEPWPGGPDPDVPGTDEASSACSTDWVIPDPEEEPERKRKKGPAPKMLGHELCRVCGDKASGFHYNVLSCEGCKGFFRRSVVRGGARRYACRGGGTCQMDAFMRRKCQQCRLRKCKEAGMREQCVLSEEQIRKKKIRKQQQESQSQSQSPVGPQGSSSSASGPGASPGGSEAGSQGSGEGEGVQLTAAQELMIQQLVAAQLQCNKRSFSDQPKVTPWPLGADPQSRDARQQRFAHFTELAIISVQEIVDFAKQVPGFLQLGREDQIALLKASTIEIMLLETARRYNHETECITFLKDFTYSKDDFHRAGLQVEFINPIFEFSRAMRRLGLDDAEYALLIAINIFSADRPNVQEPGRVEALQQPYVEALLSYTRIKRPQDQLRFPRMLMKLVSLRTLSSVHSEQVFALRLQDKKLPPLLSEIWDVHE
In words: LXR agonists, Gal4 luciferase reporter, dose response, counter-screen for ssDAF-12 agonist project, cell-based, luminescence, HEK293, S. stercoralis campaign (AID 720737). Format: functional. Particulars: read-out: IC50 (the source's name). In general terms: A reporter such as luciferase makes a cellular process visible.

Test [13] in a line: Luminescence-based cell-based high throughput dose response assay to identify activators of the DAF-12 from the parasite S. stercoralis (ssDAF-12). Format: functional.
Test [14] concerns the target RNA-editing ligase 1, mitochondrial (Trypanosoma brucei brucei, UniProt P86926). In words: inhibition of trypanosome RNA editing ligase – biochemical, fluorescence, Trypanosoma brucei, dose response (AID 1117295). Format: functional.
Test [15] has as its target G-protein coupled receptor 183 (Homo sapiens, UniProt P32249). In words: SAR confirmation of small molecule antagonists of the EBI2 receptor via a luminescent beta-arrestin assa. Format: functional.
The target in test [16] is T2, Low molecular weight phosphotyrosine protein phosphatase (Homo sapiens, UniProt P24666).
T2 sequence (P24666 whole entry): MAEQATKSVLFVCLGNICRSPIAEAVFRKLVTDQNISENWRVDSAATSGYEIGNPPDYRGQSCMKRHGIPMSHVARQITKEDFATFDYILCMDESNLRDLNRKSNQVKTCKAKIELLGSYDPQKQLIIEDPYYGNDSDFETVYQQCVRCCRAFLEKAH
In words: inhibition of LMPTP-A enzymatic activity – biochemical, OMFP substrate, fluorescence intensity, set 2, dose response (AID 743307). The test is classed as functional.

Test [17] addresses T2, Low molecular weight phosphotyrosine protein phosphatase. In words: inhibition of human LMPTP enzyme activity – biochemical, absorbance, pNPP substrate, LMPTP-A isoform, set 2, orthogonal assay, dose response (AID 743308). The test is classed as functional.
Test [18] can be described thus: antimalarial activity against Dd2 parasites – SYBR Green fluorescence, erythrocytes, dry powder, set 2, dose response (AID 1159574). The test is classed as functional, cell-based.

Sequence of G-protein coupled receptor 183 (P32249 whole entry): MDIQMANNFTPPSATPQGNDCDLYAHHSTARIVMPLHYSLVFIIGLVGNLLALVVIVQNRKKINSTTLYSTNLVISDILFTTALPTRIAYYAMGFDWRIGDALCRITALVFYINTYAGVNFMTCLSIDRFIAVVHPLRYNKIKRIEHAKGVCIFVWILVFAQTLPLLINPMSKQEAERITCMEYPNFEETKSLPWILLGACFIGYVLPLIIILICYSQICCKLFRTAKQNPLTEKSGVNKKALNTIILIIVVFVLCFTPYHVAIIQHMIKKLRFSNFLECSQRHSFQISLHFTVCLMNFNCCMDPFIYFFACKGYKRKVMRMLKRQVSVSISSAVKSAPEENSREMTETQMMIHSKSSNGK
Sequence of RNA-editing ligase 1, mitochondrial (P86926 whole entry): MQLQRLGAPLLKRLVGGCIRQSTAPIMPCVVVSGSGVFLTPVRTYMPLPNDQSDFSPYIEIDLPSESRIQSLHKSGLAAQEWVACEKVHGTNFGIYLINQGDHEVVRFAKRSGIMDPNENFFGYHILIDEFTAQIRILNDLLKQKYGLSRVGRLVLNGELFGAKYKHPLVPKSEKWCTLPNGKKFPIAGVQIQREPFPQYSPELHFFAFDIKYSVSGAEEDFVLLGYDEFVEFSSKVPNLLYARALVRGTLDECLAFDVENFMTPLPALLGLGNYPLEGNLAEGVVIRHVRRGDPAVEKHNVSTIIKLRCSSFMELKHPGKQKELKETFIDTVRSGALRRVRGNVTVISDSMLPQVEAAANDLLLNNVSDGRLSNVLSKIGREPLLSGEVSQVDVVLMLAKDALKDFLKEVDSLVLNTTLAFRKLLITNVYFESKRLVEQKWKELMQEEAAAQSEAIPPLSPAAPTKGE

Regarding `CCc1ccc(Nc2n[n+](-c3ccccc3)c(-c3ccc(N(CC)CC)cc3)s2)cc1`, the values for the EC50 in [1] and in test [3] were 0.408 µM (active) and > 60 µM (not active), respectively. Further, the half-maximal inhibitory concentration (IC50) in test [2] was 5.48 µM (active).

On to `C/C(=N\O)[C@@H](C)NCC(C)(C)CN[C@H](C)/C(C)=N/O`, for which the IC50 in test [4], in test [5], in test [6], in test [7], in test [8] and in [9] was > 20 µM (inactive) throughout. The IC50 in test [10] and in test [11] was > 20 µM (inactive) each time.

In the case of `C[C@@H](c1ccccc1)N1C[C@@H](COCc2ccccc2)Oc2cc(N3CCC[C@H]3C(N)=O)ccc2S1(=O)=O`, the EC50 in test [12] was > 67.5 µM (inactive). For the same compound, the IC50 in test [13] was > 67.5 µM (inactive).

For `COC(=O)C1=C(C)N(Cc2ccccc2C(F)(F)F)C(NCc2ccc(OC)cc2)=NC1c1ccccc1` (stereo not drawn), the IC50 in test [14] was > 96.6 µM (inactive).

In the case of `O=C(/C=C/c1ccc(F)cc1)N1CCN(S(=O)(=O)c2cccc3ccccc23)CC1`, in test [15], the IC50 was 0.0497 µM (active).

Consider `Fc1cccc(-c2cc(NCCCN3CCCCC3)c3ccccc3n2)c1`, for which the concentration for half-maximal inhibition (IC50) is 1.84 µM (active) in test [16] and 4 µM (active) in test [17].

Regarding `COc1ccc(S(=O)(=O)N(C)C[C@@H]2OCc3ccccc3-c3c(n(C)c4ccccc34)C(=O)N([C@@H](C)CO)C[C@H]2C)cc1`, the AC50 in test [18] was 2.27 µM (active).

As usually defined, the IC50 is the concentration that inhibits the measured activity by half. The AC50 is the concentration giving half of the maximal activity seen.
